By Ki is commonly meant the dissociation constant of the complex between target and ligand, obtained from inhibition or displacement. A high value points to weaker binding.

The text below walks through data of US8828940B2, “Method of treating an ischemia-reperfusion injury-related disorder by administering GPCR ligands” (priority 2006, dated 2014).

No end group written: not given here.

Test [1] concerns the target T1, FPRL1 (Homo sapiens, UniProt P25090).
T1 sequence (P25090 1-351): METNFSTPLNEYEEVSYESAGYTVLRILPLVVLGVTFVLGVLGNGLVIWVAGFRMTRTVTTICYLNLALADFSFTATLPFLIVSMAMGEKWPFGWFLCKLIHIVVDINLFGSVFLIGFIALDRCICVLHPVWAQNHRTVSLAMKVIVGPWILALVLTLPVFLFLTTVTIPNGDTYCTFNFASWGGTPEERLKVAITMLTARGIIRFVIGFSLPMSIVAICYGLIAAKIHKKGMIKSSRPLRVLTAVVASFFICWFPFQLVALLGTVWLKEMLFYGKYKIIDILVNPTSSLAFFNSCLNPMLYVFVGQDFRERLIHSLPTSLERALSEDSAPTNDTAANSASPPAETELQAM
Put plainly: Calcium flux in FPRL1-transfected CHO-K1 cells. In kind it is cell-based. Details: expressed in transfected cells; host or cells: CHO-K1 (ATCC-CCL-61), transient co-transfection. The settings on record: for calcium flux relative to the negative control: CHO-K1 co-transfected with FPRL1 and Gα16, 1 μM, about 20-90 seconds. How it is done:
(§1) The assay was carried out in CHO cells were transiently transfected with the GPCR of choice, by utilizing the promiscuous Gα16 to divert signaling to the Gq pathway, thus enabling readout of GPCR activation by testing for Calcium flux as described by Liu et al 2003 (Biomol Screen 8, 39-49).
(§2) All the peptides thus obtained were tested for their ability to change calcium flux in CHO-K1 cells (ATCC-CCL-61) transiently co-transfected with an expression vector containing the GPCR of choice and expression vector containing the Gα16 encoding cDNA. Expression constructs containing cDNA clones for MrgX1, MrgX2, Mas or FPRL1 were commercially obtained in one of the following expression vectors: pcDNA3.1, pCMV6, or MO2.
(§3) Transient transfections were performed using CHO-K1 cells as host cells. Cells (12 million) were plated into T75 flasks on the day preceding transfection. Cells were transfected with the appropriate GPCR expression vector and with a vector expressing Gα16 using a lipid-based reagent, MTI, according to the manufacturer's recommendation. Cells were transfected for 5 hours, then re-plated into 96-well dishes (60,000 cells per well) and grown overnight.
On the day of the experiment, cells were loaded with Fluo-4-NW (Invitrogen) according to the manufacturer's recommendation. Plates were loaded into a FlexStation™ (Molecular Devices) plate reader and fluorescence was monitored. […] Each 96 well plate contained cells transfected with one GPCR expression vector and each of the examined peptides was tested in triplicate.
(§4) We defined a hit as a peptide which elicited a clear and distinct increase in intracellular calcium that is clearly visible and statistically significant upon examination of the calcium trace for at least two repeats. The criterion for statistical significance was a p-value lower than 0.001 in a t-test comparing the levels of calcium before and after peptide addition.
The ability of Peptides to change calcium flux was examined in CHO-K1 cells co-transfected with FPRL1 and Gα16.
The P33-derived peptides (see FIG. 1): P33_V (SEQ ID NO:7), P33 (SEQ ID NO:6)-mono, P33 (SEQ ID NO:6)-dimer, P33—5 (SEQ ID NO:27), P33—8 (SEQ ID NO:14), P33—9 (SEQ ID NO:15) and P33—10 (SEQ ID NO:16) were tested for their ability to activate FPRL1 using the calcium flux assay in FPRL1-transfected CHO cells. […] The lack of activity of these peptides might be due to reduced potency; insufficient sensitivity of the experimental system, alternative interaction of the receptor, or activation of other pathways, which are not related to calcium flux. Thus, this interaction should be further characterized.
(A change in cytosolic calcium serves as a functional read-out for many receptors and channels.)

The target of test [2] is T1, FPRL1. Briefly: Competitive radioligand binding assay to FPRL1 ([125I] WKYMVm). Details: expressed in transfected cells; host or cells: CHO cells. The settings on record: 0.025 nM [125I] WKYMVm; CHO transfected cells. Here is the method: The specific binding of Peptide 58 (SEQ ID NO:1) to FPRL1 was analyzed by testing its ability to compete with 0.025 nM [^125I] WKYMVm (W peptide), a known agonist of FPRL1, for binding to FPRL1 in CHO transfected cells. CKβ8-1 (aa 46-137), another known ligand of FPRL1 was used as a positive control in this assay (Chiang et al 2006, Pharmacological Reviews 58, 463-487). Peptides were incubated with cells for 90 minutes at 25° C., in the presence of Incubation Buffer (50 mM HEPES, pH 7.4, 100 mM NaCl, 5 mM KCl, 5 mM MgCl2, 2 mM Ca Cl2, 0.5% BSA) and the amount of radioactive W peptide was measured.

The target in a further test is T2, MrgX2 (Homo sapiens, UniProt Q96LB1).
T2 construct: expressed in transfected cells; host or cells: CHO-K1 (ATCC-CCL-61), transient co-transfection
T2 sequence (Q96LB1 1-330): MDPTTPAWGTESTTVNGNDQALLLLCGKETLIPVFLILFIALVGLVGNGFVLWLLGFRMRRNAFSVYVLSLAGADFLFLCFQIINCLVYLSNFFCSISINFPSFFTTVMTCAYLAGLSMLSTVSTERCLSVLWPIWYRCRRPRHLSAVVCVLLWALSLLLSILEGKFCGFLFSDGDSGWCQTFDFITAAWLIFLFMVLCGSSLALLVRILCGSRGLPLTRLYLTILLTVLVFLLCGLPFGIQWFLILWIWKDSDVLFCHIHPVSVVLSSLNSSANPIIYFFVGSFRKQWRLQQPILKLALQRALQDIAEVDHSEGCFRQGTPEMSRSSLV
Briefly: Calcium flux in MrgX2-transfected CHO-K1 cells. The settings on record: for calcium flux relative to the negative control: CHO-K1 co-transfected with MrgX2 and Gα16, 1 μM, about 20-90 seconds; for eliciting calcium flux compared with cortistatin-14: summary statement, MrgX2-expressing cells. In kind it is cell-based. Here is the method: as §1, §2, §3
(§5) On the day of the experiment, cells were loaded with Fluo-4-NW (Invitrogen) according to the manufacturer's recommendation. Plates were loaded into a FlexStation™ (Molecular Devices) plate reader and fluorescence was monitored. Seventeen seconds following initiation of reading, cells were stimulated with the indicated agonist/compound at final concentration of 1 μM. Each 96 well plate contained cells transfected with one GPCR expression vector and each of the examined peptides was tested in triplicate.
as §4
The ability of Peptides to change calcium flux was examined in CHO-K1 cells co-transfected with MrgX2 and Gα16.

Test [3] concerns cardiac remodeling induced by Isoproterenol in Wistar rats. Put plainly: Cardiac remodeling induced by Isoproterenol. In kind it is in vivo, rat. How it is done:
The effect of the peptides […] (SEQ ID NO:10), […]-dimer ([…]) (SEQ ID NO9), P33_V (SEQ ID NO:7), P33-dimer (P33_D) (SEQ ID NO:6) on cardiac remodeling, was tested by determining their effect on heart hypertrophy and fibrosis (deposition of collagen I, III, and fibronectin) induced by Isoproterenol. Losartan (an antagonist of the known angiotensin II receptor, AT1, Kucharewicz et al., 2002; Hypertension, (40): 774-779) was used as positive control. The negative control group was treated with vehicle only. Additional control groups included rats not-treated with isoproterenol which were treated with the peptides, with Losartan or with the vehicle. The analysis included determination of the left ventricle mass and morphometry. In addition, immunofuorescence analysis of fibronectin and collagens I and III deposition was performed by confocal microcopy. Animals Acclimatization: Male Wistar rats Age: 13-14 weeks (250 to 300 g) were maintained in the animal facilities for 7 days before the beginning of the experiment. The animals were exposed to a brightness circle of light-dark cycle of 12hs (day-06:00 to 18:00; night-18:00 to 06:00), and the room temperature was kept at 23±2° C. Heart failure was induced by daily injections of isoproterenol (2 mg/kg/day, subcutaneously) during 7 days. […] Immunofluorescence-labeling and quantitative confocal microscopy was used to investigate the distribution and quantity of collagen types I, III and fibronectin present in the left ventricles. […] Optimal confocal settings (aperture, gain and laser power) were determined at the beginning of each imaging session and then held constant during the analysis of all the samples. […] For quantitative analysis of collagens I, III, and fibronectin, the ImageTool 2.0 image analysis program was used (see “[…] University of Texas Health Science Center at San Antonio website) to measure the fluorescence intensity in images randomly selected. […]

The target in the next test is T3, Mas receptor (Homo sapiens, UniProt P04201).
T3 construct: expressed in transfected cells; host or cells: CHO-K1 (ATCC-CCL-61), transient co-transfection
T3 sequence (P04201 1-325): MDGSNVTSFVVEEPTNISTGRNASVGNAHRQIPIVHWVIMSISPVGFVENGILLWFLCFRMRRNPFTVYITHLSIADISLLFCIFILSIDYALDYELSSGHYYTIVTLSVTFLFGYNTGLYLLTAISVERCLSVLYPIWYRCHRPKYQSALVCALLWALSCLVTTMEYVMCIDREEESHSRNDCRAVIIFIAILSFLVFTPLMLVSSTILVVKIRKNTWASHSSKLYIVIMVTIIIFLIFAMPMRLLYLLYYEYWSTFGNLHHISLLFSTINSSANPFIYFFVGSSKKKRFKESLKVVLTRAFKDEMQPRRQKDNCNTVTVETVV
Put plainly: Calcium flux in Mas-transfected CHO-K1 cells. It is filed as cell-based. The settings on record: dose response, Mas-transfected cells. Here is the method: as §1, §2, §3, §5, §4
Based on dose response experiments, EC50 best fit values were calculated by non-linear regression of sigmoidal dose-response curves, using Prism version 4 (GraphPad Software Inc., San Diego, Calif.). The formulae for the sigmoidal dose-response curves was defined as Y=Bottom+(Top−Bottom)/(1+10^(Log EC50−X)*HillSlope))
The ability of Peptides to change calcium flux was examined in CHO-K1 cells co-transfected with Mas receptor and Gα16.
The P33 monomer and dimer, as well as other P33 derivative peptides were compared for their ability to induce calcium flux in the Mas-transfected cells at 0.1, 1, 10, 100, 1000 and 10000 nM.

For the compound TIPMFVPESTSKLQKFTSWFM-NH2 [Peptide P58], the “calcium flux relative to the negative control” value at FPRL1 [1] is “increased calcium flux”. For the same compound, at FPRL1 [1] (dose response, FPRL1 transfected CHO cells), the “calcium flux (P58 family)” value was “elicited calcium flux”. In addition, the affinity at FPRL1 [2] corresponds to a Ki of 54.1 nM.
Regarding “AAQATGPLQDNELPGLDERPPRAHAQHFHKHQLWPSPFRALKPRP (listed as Homo sapiens) [Peptide P94]”, the “calcium flux relative to the negative control” value in the test with MrgX2 and in the test with FPRL1 [1] was “increased calcium flux” in each case. Also, the “eliciting calcium flux compared with cortistatin-14” value with MrgX2 was “superior to cortistatin-14”.
On to `CCCCc1nc(Cl)c(CO)n1Cc1ccc(-c2ccccc2-c2nn[nH]n2)cc1` [Losartan, reference compound], for which the “left ventricle to body mass ratio (LV/BW)” value in test [3] (isoproterenol 2 mg/kg/day s.c. 7 days, peptides 1 ug/hour/Kg by osmotic minipump, Losartan 1 mg/kg once a day by gavage) is recorded as “did not have an effect”.
Consider “AHAQHFHKHQLWPSPFRALKPRP (listed as Homo sapiens) [Peptide 63]”, for which, in the test with MrgX2, the “calcium flux relative to the negative control” value is “increased calcium flux” and the “eliciting calcium flux compared with cortistatin-14” value is listed as “superior to cortistatin-14”.
With “FLGYCIYLNRKRRGDPAFKRRLRD (also: dimer via cysteine; listed as Homo sapiens) [Peptide P61_dimer]”, the “heart hypertrophy as measured by deposition of Fibronectin, Collagen I and Collagen III” value in test [3] (1 ug/hour/Kg by osmotic minipump, partial data, 3 out of 6 animals of each group) is recorded as “effective in reducing the heart hypertrophy”. The “effect as measured by Fibronectin deposition” value in test [3] (partial data, 3 out of 6 animals, FIG. 40) is “not significant”. The “ability to induce calcium flux, relative potency (P61 family)” value with Mas receptor was “more potent than the monomeric P61 peptides”.
